Assay results taken from PubChem BioAssay AID2060885 (Molecular Pharmacology Branch, DTP, NCI, 2025).

Test system: NCI-H23 complex spheroids with HUVEC/MSC, viability
Assay: Anticancer human tumor NCI-H23 cell line growth inhibition [RAS];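 further: spheroids exposed to compound for 7 days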;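 on viability, T/C: 100% = DMSO vehicle control viability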
Details: for IC50: curve of first compound; for viability, T/C: stronger effect = lower value
Summary of the method: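 Multi-cell-type spheroids: tumor cells plus HUVEC endothelial cells and mesenchymal stem cells. RAS-pathway inhibitors were combined with targeted agents, each dosed in half-log steps down from clinical Cmax, or from 10 microM when Cmax was unknown.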

[1] = second compound 0.0316 µM, first compound 0.0316 µM
[2] = second compound 0.0316 µM, first compound 0.1 µM
[3] = second compound 0.0316 µM, first compound 0.316 µM
[4] = second compound 0.0316 µM, first compound 1 µM
[5] = second compound 0.1 µM, first compound 0.0316 µM
[6] = second compound 0.1 µM, first compound 0.1 µM
[7] = second compound 0.1 µM, first compound 0.316 µM
[8] = second compound 0.1 µM, first compound 1 µM
[9] = second compound 0.316 µM, first compound 0.0316 µM
[10] = second compound 0.316 µM, first compound 0.1 µM
[11] = second compound 0.316 µM, first compound 0.316 µM
[12] = second compound 0.316 µM, first compound 1 µM
[13] = second compound 1 µM, first compound 0.0316 µM
[14] = second compound 1 µM, first compound 0.1 µM
[15] = second compound 1 µM, first compound 0.316 µM
[16] = second compound 1 µM, first compound 1 µM
[17] = second compound 3.16 µM, first compound 0.0316 µM
[18] = second compound 3.16 µM, first compound 0.1 µM
[19] = second compound 3.16 µM, first compound 0.316 µM
[20] = second compound 3.16 µM, first compound 1 µM
[21] = second compound 10 µM, first compound 0.0316 µM
[22] = second compound 10 µM, first compound 0.1 µM
[23] = second compound 10 µM, first compound 0.316 µM
[24] = second compound 10 µM, first compound 1 µM

`C=CC(=O)N1CCN(c2nc(OCC3CCCN3C)nc3c(F)c(-c4nc(N)cc(C)c4C(F)(F)F)c(Cl)cc23)C(C)C1` (stereo unspecified) + C#Cc1c(F)ccc2cc(O)cc(-c3ncc4c(N5CC6CCC(C5)N6)nc(OCC56CCCN5CC(F)C6)nc4c3F)c12 was tested, and the IC50 (second compound 0.0316 µM) was 11.5 nM, the IC50 (second compound 0.1 µM) was 19.2 nM and the IC50 (second compound 0.316 µM) was 24.2 nM. It also gave an IC50 (second compound 1 µM) of 13.8 nM, an IC50 (second compound 3.16 µM) of 11.3 nM and an IC50 (second compound 10 µM) of under 3.16 nM. It also gave a viability, T/C (second compound 0.0316 µM, first compound 0.00316 µM) of 72.4%, a viability, T/C (second compound 0.0316 µM, first compound 0.01 µM) of 52.6% and a viability, T/C [1] of 40.5%. The viability, T/C [2] was 35.5%, the viability, T/C [3] was 38% and the viability, T/C [4] was 36.3%. For the same compound, the viability, T/C (second compound 0.1 µM, first compound 0.00316 µM) was 80.7%, the viability, T/C (second compound 0.1 µM, first compound 0.01 µM) was 58.2% and the viability, T/C [5] was 45.3%. For the same compound, the viability, T/C [6] was 35.7%, the viability, T/C [7] was 30.3% and the viability, T/C [8] was 42.2%. For the same compound, the viability, T/C (second compound 0.316 µM, first compound 0.00316 µM) was 65.2%, the viability, T/C (second compound 0.316 µM, first compound 0.01 µM) was 61.3% and the viability, T/C [9] was 46.5%. The viability, T/C [10] was 37.9%, the viability, T/C [11] was 35% and the viability, T/C [12] was 37.2%. The viability, T/C (second compound 1 µM, first compound 0.00316 µM) was 83.2%, the viability, T/C (second compound 1 µM, first compound 0.01 µM) was 54.5% and the viability, T/C [13] was 37.7%. The viability, T/C [14] was 39.2%, the viability, T/C [15] was 39.5% and the viability, T/C [16] was 37.7%. The viability, T/C (second compound 3.16 µM, first compound 0.00316 µM) was 59.9%, the viability, T/C (second compound 3.16 µM, first compound 0.01 µM) was 55.9% and the viability, T/C [17] was 38.4%. It also gave a viability, T/C [18] of 42.3%, a viability, T/C [19] of 39.8% and a viability, T/C [20] of 38.5%. For the same compound, the viability, T/C (second compound 10 µM, first compound 0.00316 µM) was 35.7%, the viability, T/C (second compound 10 µM, first compound 0.01 µM) was 39.6% and the viability, T/C [21] was 42.4%. The viability, T/C [22] was 32.3%, the viability, T/C [23] was 30.4% and the viability, T/C [24] was 33.5%.

For `CC(=O)OC12COC1CC(O)C1(C)C(=O)C(O)C3=C(C)C(OC(=O)C(O)C(NC(=O)OC(C)(C)C)c4ccccc4)CC(O)(C(OC(=O)c4ccccc4)C21)C3(C)C` (stereo unspecified) + C#Cc1c(F)ccc2cc(O)cc(-c3ncc4c(N5CC6CCC(C5)N6)nc(OCC56CCCN5CC(F)C6)nc4c3F)c12, the IC50 (second compound 0.0316 µM) was under 31.6 nM, the IC50 (second compound 0.1 µM) was under 31.6 nM and the IC50 (second compound 0.316 µM) was under 31.6 nM. The IC50 (second compound 1 µM) was under 31.6 nM, the IC50 (second compound 3.16 µM) was under 31.6 nM and the IC50 (second compound 10 µM) was under 31.6 nM. It also gave a viability, T/C [1] of 30.7%, a viability, T/C [2] of 41.2% and a viability, T/C [3] of 37.2%. The viability, T/C [4] was 32.2%, the viability, T/C (second compound 0.0316 µM, first compound 3.16 µM) was 47.1% and the viability, T/C (second compound 0.0316 µM, first compound 10 µM) was 62.8%. For the same compound, the viability, T/C [5] was 27.8%, the viability, T/C [6] was 36.6% and the viability, T/C [7] was 34.6%. For the same compound, the viability, T/C [8] was 30.9%, the viability, T/C (second compound 0.1 µM, first compound 3.16 µM) was 56.1% and the viability, T/C (second compound 0.1 µM, first compound 10 µM) was 71.2%. It also gave a viability, T/C [9] of 34.1%, a viability, T/C [10] of 35.6% and a viability, T/C [11] of 31.3%. For the same compound, the viability, T/C [12] was 32%, the viability, T/C (second compound 0.316 µM, first compound 3.16 µM) was 46.1% and the viability, T/C (second compound 0.316 µM, first compound 10 µM) was 57.2%. For the same compound, the viability, T/C [13] was 27.3%, the viability, T/C [14] was 30.5% and the viability, T/C [15] was 32%. The viability, T/C [16] was 23.6%, the viability, T/C (second compound 1 µM, first compound 3.16 µM) was 36.4% and the viability, T/C (second compound 1 µM, first compound 10 µM) was 46.6%. It also gave a viability, T/C [17] of 20.1%, a viability, T/C [18] of 21.6% and a viability, T/C [19] of 21.2%. The viability, T/C [20] was 23.6%, the viability, T/C (second compound 3.16 µM, first compound 3.16 µM) was 25.6% and the viability, T/C (second compound 3.16 µM, first compound 10 µM) was 39%. The viability, T/C [21] was 17.9%, the viability, T/C [22] was 20.7% and the viability, T/C [23] was 16.5%. It also gave a viability, T/C [24] of 19.1%, a viability, T/C (second compound 10 µM, first compound 3.16 µM) of 23.1% and a viability, T/C (second compound 10 µM, first compound 10 µM) of 30.5%.

Work on `CCc1c2c(nc3ccc(O)cc13)-c1cc3c(c(=O)n1C2)COC(=O)[C@]3(O)CC` + C#Cc1c(F)ccc2cc(O)cc(-c3ncc4c(N5CC6CCC(C5)N6)nc(OCC56CCCN5CC(F)C6)nc4c3F)c12 yielded an IC50 (second compound 0.0316 µM) of 5.66 nM, an IC50 (second compound 0.1 µM) of 4.78 nM and an IC50 (second compound 0.316 µM) of 4.89 nM. It also gave an IC50 (second compound 1 µM) of 2.89 nM, an IC50 (second compound 3.16 µM) of 1.25 nM and an IC50 (second compound 10 µM) of under 0.949 nM. It also gave a viability, T/C (second compound 0.0316 µM, first compound 0.000949 µM) of 74.6%, a viability, T/C (second compound 0.0316 µM, first compound 0.003 µM) of 75.5% and a viability, T/C (second compound 0.0316 µM, first compound 0.00949 µM) of 29.9%. For the same compound, the viability, T/C (second compound 0.0316 µM, first compound 0.03 µM) was 13.3%, the viability, T/C (second compound 0.0316 µM, first compound 0.0949 µM) was 9.2% and the viability, T/C (second compound 0.0316 µM, first compound 0.3 µM) was 5.86%. It also gave a viability, T/C (second compound 0.1 µM, first compound 0.000949 µM) of 87.8%, a viability, T/C (second compound 0.1 µM, first compound 0.003 µM) of 64.6% and a viability, T/C (second compound 0.1 µM, first compound 0.00949 µM) of 28.2%. For the same compound, the viability, T/C (second compound 0.1 µM, first compound 0.03 µM) was 14.7%, the viability, T/C (second compound 0.1 µM, first compound 0.0949 µM) was 9.07% and the viability, T/C (second compound 0.1 µM, first compound 0.3 µM) was 6.92%. For the same compound, the viability, T/C (second compound 0.316 µM, first compound 0.000949 µM) was 96.7%, the viability, T/C (second compound 0.316 µM, first compound 0.003 µM) was 67.8% and the viability, T/C (second compound 0.316 µM, first compound 0.00949 µM) was 25.4%. For the same compound, the viability, T/C (second compound 0.316 µM, first compound 0.03 µM) was 12.8%, the viability, T/C (second compound 0.316 µM, first compound 0.0949 µM) was 9.27% and the viability, T/C (second compound 0.316 µM, first compound 0.3 µM) was 5.24%. For the same compound, the viability, T/C (second compound 1 µM, first compound 0.000949 µM) was 86.9%, the viability, T/C (second compound 1 µM, first compound 0.003 µM) was 49.4% and the viability, T/C (second compound 1 µM, first compound 0.00949 µM) was 18.9%. The viability, T/C (second compound 1 µM, first compound 0.03 µM) was 12.2%, the viability, T/C (second compound 1 µM, first compound 0.0949 µM) was 7.17% and the viability, T/C (second compound 1 µM, first compound 0.3 µM) was 4.02%. It also gave a viability, T/C (second compound 3.16 µM, first compound 0.000949 µM) of 56.1%, a viability, T/C (second compound 3.16 µM, first compound 0.003 µM) of 30.8% and a viability, T/C (second compound 3.16 µM, first compound 0.00949 µM) of 11.7%. For the same compound, the viability, T/C (second compound 3.16 µM, first compound 0.03 µM) was 5.93%, the viability, T/C (second compound 3.16 µM, first compound 0.0949 µM) was 3.68% and the viability, T/C (second compound 3.16 µM, first compound 0.3 µM) was 2.2%. It also gave a viability, T/C (second compound 10 µM, first compound 0.000949 µM) of 31.7%, a viability, T/C (second compound 10 µM, first compound 0.003 µM) of 20.2% and a viability, T/C (second compound 10 µM, first compound 0.00949 µM) of 8.85%. It also gave a viability, T/C (second compound 10 µM, first compound 0.03 µM) of 5.36%, a viability, T/C (second compound 10 µM, first compound 0.0949 µM) of 3.22% and a viability, T/C (second compound 10 µM, first compound 0.3 µM) of 2.27%.
